By inhibition is commonly meant how much of the control response was suppressed.

What all share (format): in vitro ADME
Series [1] has as its target CYP2B6 (Homo sapiens (Human), UniProt P20813). The series can be described thus: CYP inhibition assay in mixed human liver microsomes. The settings on record: mixed (pooled) human liver microsomes, read-out: Inhibition rate % CYP2B6.
Series [2] has as its target CYP2C19 (Homo sapiens (Human), UniProt P33261). The description is as above. The settings on record: mixed (pooled) human liver microsomes, read-out: Inhibition rate % CYP2C19.
Series [3] addresses CYP2C9 (Homo sapiens (Human), UniProt P11712). The description is as above. The conditions noted are these: mixed (pooled) human liver microsomes, read-out: Inhibition rate % CYP2C9. (In general: Microsomes from liver hold many membrane-bound enzymes, among them those of drug oxidation.)
Series [4] deals with CYP2D6 (Homo sapiens (Human), UniProt P10635). Described as above. The settings on record: mixed (pooled) human liver microsomes, read-out: Inhibition rate % CYP2D6.
CYP2D6, sequence (P10635 whole entry): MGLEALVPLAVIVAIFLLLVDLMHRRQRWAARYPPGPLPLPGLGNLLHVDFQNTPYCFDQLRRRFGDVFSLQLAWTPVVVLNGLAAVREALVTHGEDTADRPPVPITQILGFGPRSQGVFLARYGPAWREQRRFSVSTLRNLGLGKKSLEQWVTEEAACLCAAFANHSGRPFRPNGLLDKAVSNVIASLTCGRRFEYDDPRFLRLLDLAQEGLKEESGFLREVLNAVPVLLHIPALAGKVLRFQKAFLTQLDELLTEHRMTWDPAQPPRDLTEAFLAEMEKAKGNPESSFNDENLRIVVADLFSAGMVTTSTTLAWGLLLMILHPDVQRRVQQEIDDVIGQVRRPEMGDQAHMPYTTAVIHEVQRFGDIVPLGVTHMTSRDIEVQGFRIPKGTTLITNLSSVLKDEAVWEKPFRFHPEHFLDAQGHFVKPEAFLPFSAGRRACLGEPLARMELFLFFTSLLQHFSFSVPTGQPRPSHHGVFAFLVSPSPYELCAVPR
Series [5] in a line: Free plasma protein binding (PPB) assay, equilibrium dialysis. The conditions noted are these: dialysis 6 hours at 37° C. How it is done:
The dried dialysis membrane was soaked in ultrapure water for 1 hour, then soaked in 20% ethanol for 20 minutes, and then rinsed with ultrapure water for 2 to 3 times. Finally, the dried dialysis membrane was soaked in ultrapure water for 20 minutes for later use. The frozen plasma was thawed in a water bath at 37° C. for about 20 minutes. pH value of the plasma was measured after thawing was complete, and was adjusted to 7.4 with 1% phosphoric acid solution or 0.1M sodium hydroxide solution. […] The pretreated dialysis membrane was assembled into the dialysis plate according to product instructions, and 100 μL of receiving solution (100 mM phosphate buffer solution plus 0.002% Tween 80) was added to one side of the permeable membrane in each dialysis well. 20 μL of each of the final solution of the test compound and the final solution of the control compound were taken in a 96-well sample plate, two duplicate samples were made, and T0 sample was obtained, which was stored in a −20° C. refrigerator. Another 100 μL of each of the above-mentioned final solutions were taken to the other side of the membrane in the dialysis device, two duplicate samples were made, and incubated at 37° C. with constant shaking for 6 hours. After 6 hours of incubation, 20 μL of each of the dialyzed receiving solution and the administered plasma were taken, two duplicate samples were made, and sample A and sample B were obtained. Corresponding blank plasma or receiving solution of corresponding volume were added to sample B and sample A, respectively, allowing the volume ratio of plasma to buffer in each sample well to be 1:1. 300 μL of sample-containing internal standard acetonitrile solution was added to all the sample wells. The mixture was mixed well, and centrifuged at 5,500×g for 10 minutes. 150 μL of corresponding ultrapure water was added to the corresponding sample wells of the 96-well sample plate. 150 μL of the supernatant was taken into the sample wells, and mixed well. Then, LC/MS/MS analysis was performed. The calculation formula of fu is: […]
where: CR: peak area ratio measured in the receiving chamber well CD: peak area ratio measured in the supply chamber well.
(In general: Equilibrium dialysis compares concentrations on both sides of a semipermeable membrane.)

Like-named read-outs stand apart in the source and are kept apart here.

CYP2B6, sequence (P20813 whole entry): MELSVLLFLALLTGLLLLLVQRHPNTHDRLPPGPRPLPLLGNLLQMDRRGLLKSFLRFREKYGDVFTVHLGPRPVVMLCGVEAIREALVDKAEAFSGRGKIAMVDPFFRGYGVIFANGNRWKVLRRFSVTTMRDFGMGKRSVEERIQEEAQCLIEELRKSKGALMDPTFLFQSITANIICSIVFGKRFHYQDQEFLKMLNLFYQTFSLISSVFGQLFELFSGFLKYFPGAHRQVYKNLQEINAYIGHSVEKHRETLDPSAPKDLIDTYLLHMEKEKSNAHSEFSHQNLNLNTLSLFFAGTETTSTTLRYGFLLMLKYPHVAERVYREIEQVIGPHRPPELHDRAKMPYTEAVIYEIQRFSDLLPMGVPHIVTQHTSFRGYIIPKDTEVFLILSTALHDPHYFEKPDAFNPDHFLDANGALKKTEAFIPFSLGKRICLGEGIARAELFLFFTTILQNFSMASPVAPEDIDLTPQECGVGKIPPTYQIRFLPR
CYP2C19, sequence (P33261 whole entry): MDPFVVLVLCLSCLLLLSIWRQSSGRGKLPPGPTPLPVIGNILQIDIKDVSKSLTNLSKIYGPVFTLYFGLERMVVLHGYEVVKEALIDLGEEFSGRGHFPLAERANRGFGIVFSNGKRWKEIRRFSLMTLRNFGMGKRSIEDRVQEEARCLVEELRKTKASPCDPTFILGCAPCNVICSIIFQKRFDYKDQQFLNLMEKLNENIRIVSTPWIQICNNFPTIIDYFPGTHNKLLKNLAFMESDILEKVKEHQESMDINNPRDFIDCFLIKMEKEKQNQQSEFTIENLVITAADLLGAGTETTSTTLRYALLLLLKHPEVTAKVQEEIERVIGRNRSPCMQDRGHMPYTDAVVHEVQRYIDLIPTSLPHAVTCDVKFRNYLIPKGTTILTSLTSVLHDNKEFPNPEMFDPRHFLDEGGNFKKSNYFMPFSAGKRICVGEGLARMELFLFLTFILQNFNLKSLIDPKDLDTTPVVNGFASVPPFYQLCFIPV
CYP2C9, sequence (P11712 whole entry): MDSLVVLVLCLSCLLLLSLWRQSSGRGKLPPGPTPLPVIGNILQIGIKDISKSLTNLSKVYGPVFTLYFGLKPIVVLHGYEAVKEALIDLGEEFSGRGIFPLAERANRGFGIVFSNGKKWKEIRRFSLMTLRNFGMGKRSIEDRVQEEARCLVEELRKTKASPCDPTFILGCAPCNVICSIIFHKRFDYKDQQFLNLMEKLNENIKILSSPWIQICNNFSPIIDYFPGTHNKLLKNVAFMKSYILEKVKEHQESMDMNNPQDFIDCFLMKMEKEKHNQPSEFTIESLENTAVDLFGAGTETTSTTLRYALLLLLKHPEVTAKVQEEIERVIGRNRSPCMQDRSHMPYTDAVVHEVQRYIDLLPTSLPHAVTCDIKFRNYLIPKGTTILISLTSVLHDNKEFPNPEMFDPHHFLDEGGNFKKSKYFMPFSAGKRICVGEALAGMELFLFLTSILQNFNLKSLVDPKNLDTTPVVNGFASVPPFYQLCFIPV

`COC(=O)NS(=O)(=O)c1sc(CC(C)C)c(C)c1-c1ccc(Cn2ccnc2Cl)cc1` [Compound I-34, Methyl ((3-(4-((2-chloro-1H-imidazol-1-yl)methyl)phenyl)-5-isobutyl-4-methylthiophen-2-yl)sulfonyl)carbamate]: the inhibition at 10 µM was found to be 13.7% in series [1], 36.5% in series [2], 77.3% in series [3] and 12.6% in series [4]. Besides, the fraction unbound at 6 h, 1 μM was determined as 0.0141 in series [5] (dog, pH 7.4, Canine plasma, read-out: fu % Canine); 0.008 in series [5] (pH 7.4, Human plasma, read-out: fu % Human); 0.0093 in series [5] (pH 7.4, Mouse plasma, read-out: fu % Mouse); 0.0289 in series [5] (pH 7.4, Rat plasma, read-out: fu % Rat).
